Data from patent US9765105B2, “Macrolide compound” (Pulike Biological Engineering, Inc., priority 2013, dated 2017).

Experiments:
Test in all cases: in vitro susceptibility, MIC by mini broth dilution
Format in all cases: cell-based
[1] = system: Staphylococcus aureus CVCC26003; conditions: strain CVCC26003
Summary of the method: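 MICs were determined by mini broth dilution under NCCLS standards in CAMHB, using revived S. aureus CVCC26003 subcultured 20 h at 35° C. Compounds were two-fold serially diluted in DMSO across 11 wells, with duplicate rows. Bacterial suspension was diluted 1:200 in medium before inoculation.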

Haemophilus parasuis = system: Haemophilus parasuis
Summary of the method: (§1)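 Bacteria were revived from −20° C stocks and streaked twice on solid medium, each time grown 20 h at 35° C. Compounds were double-diluted in DMSO across 11 wells and tested in two parallel rows. The bacterial suspension was diluted 1:200 with liquid medium before MIC determination by mini broth dilution.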

[2] = system: Streptococcus equines CVCC556; conditions: strain CVCC556
Summary of the method: as §1

[3] = system: Actinobacillus pleuropneumoniae CVCC262; conditions: strain CVCC262
Summary of the method: as §1

[4] = system: Pasteurella multocida CVCC399; conditions: strain CVCC399
Summary of the method: as §1

| MIC values, Staphylococcus aureus CVCC26003 [1] [ug/mi] | MIC values, Haemophilus parasuis (Haemophilus parasuis) [ug/mi] | MIC values, Streptococcus equines CVCC556 [2] [ug/mi] | MIC values, Actinobacillus pleuropneumoniae CVCC262 [3] [ug/mi] | MIC values, Pasteurella multocida CVCC399 [4] [ug/mi] | SMILES |
| --- | --- | --- | --- | --- | --- |
| 0.25 | 0.25 | 0.25 | 0.5 | 0.5 | CCCN1C[C@H](C)[C@@H](O)[C@](C)(O)[C@@H](CC)OC(=O)[C@H](C)[C@@H](O[C@H]2C[C@@](C)(OC)[C@](O)(CN3CCNCC3)[C@H](C)O2)[C@H](C)[C@@H](O[C@@H]2O[C@H](C)C[C@H](N(C)C)[C@H]2O)[C@](C)(O)C[C@H]1C [syzx-136] |
| 1 | 0.5 | 1 | 0.5 | 1 | CC[C@H]1OC(=O)[C@H](C)[C@@H](OC2CC(C)(OC)C(O)(CNC(C)CC(=O)O)C(C)O2)[C@H](C)[C@@H](O[C@@H]2O[C@H](C)C[C@H](N(C)C)[C@H]2O)[C@](C)(O)C[C@@H](C)NC[C@H](C)[C@@H](O)[C@]1(C)O (stereo partly drawn) [syzx-50, 3-({(2R,3S,4R,5S,8R,10R,11R,12S,13S,14R)-6-[-11-[[3,4,6-trideoxy-3-(dimethylamino)-β-D-xylo-hexopyranosy]oxy]-2-ethyl-3,4,10-trihydroxy-3,5,8,10,12,14-hexamethyl-1-oxa-7-azacyclopentadecan-15-one-13-yl-oxy]-3-hydroxy-4-methoxy-2,4-dimethyl-tetrahydropyran-3-yl-methyl}-amino)-butyric acid] |
| 0.25 | 8 | 0.25 | 0.5 | 0.5 | CCCN1C[C@H](C)[C@@H](O)[C@](C)(O)[C@@H](CC)OC(=O)[C@H](C)[C@@H](O[C@H]2C[C@@](C)(OC)[C@](O)(CNC3CCCC3)[C@H](C)O2)[C@H](C)[C@@H](O[C@@H]2O[C@H](C)C[C@H](N(C)C)[C@H]2O)[C@](C)(O)C[C@H]1C [syzx-130] |
| 2 | 2 | 0.5 | 2 | 4 | CCCN1C[C@H](C)[C@@H](O)[C@](C)(O)[C@@H](CC)OC(=O)[C@H](C)[C@@H](O[C@H]2C[C@@](C)(OC)[C@](O)(CNc3ccc(C)c(C)c3)[C@H](C)O2)[C@H](C)[C@@H](O[C@@H]2O[C@H](C)C[C@H](N(C)C)[C@H]2O)[C@](C)(O)C[C@H]1C [syzx-184] |
| 2 | 4 | 0.25 | 4 | 8 | CCCN1C[C@H](C)[C@@H](O)[C@](C)(O)[C@@H](CC)OC(=O)[C@H](C)[C@@H](O[C@H]2C[C@@](C)(OC)[C@](O)(CNc3cc(F)ccc3[N+](=O)[O-])[C@H](C)O2)[C@H](C)[C@@H](O[C@@H]2O[C@H](C)C[C@H](N(C)C)[C@H]2O)[C@](C)(O)C[C@H]1C [syzx-226] |
| 0.25 | 0.25 | 0.25 | 0.25 | 0.5 | CCCN1C[C@H](C)[C@@H](O)[C@](C)(O)[C@@H](CC)OC(=O)[C@H](C)[C@@H](O[C@H]2C[C@@](C)(OC)[C@](O)(CNC(=O)C(F)(F)F)[C@H](C)O2)[C@H](C)[C@@H](O[C@@H]2O[C@H](C)C[C@H](N(C)C)[C@H]2O)[C@](C)(O)C[C@H]1C [syzx-215] |
| 1 | 0.5 | 1 | 1 | 0.25 | CCCN1C[C@H](C)[C@@H](O)[C@](C)(O)[C@@H](CC)OC(=O)[C@H](C)[C@@H](O[C@H]2C[C@@](C)(OC)[C@](O)(CNC3CCCCCC3)[C@H](C)O2)[C@H](C)[C@@H](O[C@@H]2O[C@H](C)C[C@H](N(C)C)[C@H]2O)[C@](C)(O)C[C@H]1C [syzx-203] |
| 0.25 | 0.25 | 0.25 | 0.25 | 1 | CCCN1C[C@H](C)[C@@H](O)[C@](C)(O)[C@@H](CC)OC(=O)[C@H](C)[C@@H](O[C@H]2C[C@@](C)(OC)[C@](O)(CNCc3ccc(C(F)(F)F)cc3)[C@H](C)O2)[C@H](C)[C@@H](O[C@@H]2O[C@H](C)C[C@H](N(C)C)[C@H]2O)[C@](C)(O)C[C@H]1C [syzx-116] |
| 2 | 1 | 2 | 64 | 4 | CC[C@H]1OC(=O)[C@H](C)[C@@H](O[C@H]2C[C@@](C)(OC)[C@](O)(CNc3cc(OC)cc(OC)c3)[C@H](C)O2)[C@H](C)[C@@H](O[C@@H]2O[C@H](C)C[C@H](N(C)C)[C@H]2O)[C@](C)(O)C[C@@H](C)NC[C@H](C)[C@@H](O)[C@]1(C)O [syzx-76, (2R,3S,4R,5S,8R,10R,11R,12S,13S,14R)-13-[(2,6-dideoxy-3-C-methyl-3-O-methyl-4-C-[(3,5-dimethoxyphenyl-amino)-methyl]-α-L-ribopyranosyl)oxy]-2-ethyl-3,4,10-trihydroxy-3,5,8,10,12,14-hexamethyl-11-[[3,4,6-trideoxy-3-(dimethylamino)-β-D-xylo-hexopyranosy]oxy]-1-oxa-7-azacyclopentadecan-15-one] |
| 1 | 0.5 | 2 | 32 | 2 | CC[C@H]1OC(=O)[C@H](C)[C@@H](O[C@H]2C[C@@](C)(OC)[C@](O)(CNC(C)CCCN(C)C)[C@H](C)O2)[C@H](C)[C@@H](O[C@@H]2O[C@H](C)C[C@H](N(C)C)[C@H]2O)[C@](C)(O)C[C@@H](C)NC[C@H](C)[C@@H](O)[C@]1(C)O (stereo partly drawn) [syzx-59, (2R,3S,4R,5S,8R,10R,11R,12S,13S,14R)-13-[(2,6-dideoxy-3-C-methyl-3-O-methyl-4-C-[(1-methyl-4-dimethylaminobutylamino)-methyl]-α-L-ribopyranosyl)oxy]-2-ethyl-3,4,10-trihydroxy-3,5,8,10,12,14-hexamethyl-11-[[3,4,6-trideoxy-3-(dimethylamino)-β-D-xylo-hexopyranosy]oxy]-1-oxa-7-azacyclopentadecan-15-one] |
| 0.25 | 0.25 | 0.25 | 0.25 | 0.5 | CCCCNC[C@]1(O)[C@H](C)O[C@@H](O[C@H]2[C@H](C)[C@@H](O[C@@H]3O[C@H](C)C[C@H](N(C)C)[C@H]3O)[C@](C)(O)C[C@@H](C)N(CCC)C[C@H](C)[C@@H](O)[C@](C)(O)[C@@H](CC)OC(=O)[C@@H]2C)C[C@@]1(C)OC [syzx-102] |
| 0.5 | 0.5 | 0.25 | 0.25 | 1 | CC[C@H]1OC(=O)[C@H](C)[C@@H](O[C@H]2C[C@@](C)(OC)[C@](O)(CNCCCC(OC)OC)[C@H](C)O2)[C@H](C)[C@@H](O[C@@H]2O[C@H](C)C[C@H](N(C)C)[C@H]2O)[C@](C)(O)C[C@@H](C)NC[C@H](C)[C@@H](O)[C@]1(C)O [syzx-56, (2R,3S,4R,5S,8R,10R,11R,12S,13S,14R)-13-[(2,6-dideoxy-3-C-methyl-3-O-methyl-4-C-[(4-dimethoxy-butylamino)-methyl]-α-L-ribopyranosyl)oxy]-2-ethyl-3,4,10-trihydroxy-3,5,8,10,12,14-hexamethyl-11-[[3,4,6-trideoxy-3-(dimethylamino)-β-D-xylo-hexopyranosy]oxy]-1-oxa-7-azacyclopentadecan-15-one] |
| 2 | 2 | 0.5 | 0.5 | 2 | CC[C@H]1OC(=O)[C@H](C)[C@@H](O[C@H]2C[C@@](C)(OC)[C@](O)(CNCCN3CCCC3)[C@H](C)O2)[C@H](C)[C@@H](O[C@@H]2O[C@H](C)C[C@H](N(C)C)[C@H]2O)[C@](C)(O)C[C@@H](C)NC[C@H](C)[C@@H](O)[C@]1(C)O [syzx-90] |
| 4 | 2 | 0.25 | 2 | 8 | CCCN1C[C@H](C)[C@@H](O)[C@](C)(O)[C@@H](CC)OC(=O)[C@H](C)[C@@H](O[C@H]2C[C@@](C)(OC)[C@](O)(CNc3cc(C(F)(F)F)cc(C(F)(F)F)c3)[C@H](C)O2)[C@H](C)[C@@H](O[C@@H]2O[C@H](C)C[C@H](N(C)C)[C@H]2O)[C@](C)(O)C[C@H]1C [syzx-230] |
